16 compounds from patent US9073855B2, “BCL-2 selective apoptosis-inducing agents for the treatment of cancer and immune diseases” (AbbVie Inc., priority 2008, dated 2015) can be followed below.

One experiment concerns FL5.12/Bcl-2 cells. As to the kind of experiment: FL5.12/Bcl-2 cell viability assay under IL-3 withdrawal (CellTitre Glo). Format: cell-based, murine. The settings on record: Mus musculus, IL-3 withdrawn 48 hrs, then 24 hrs with compound. Summed up:
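Bcl-2-overexpressing murine FL5.12 transfectants underwent IL-3 removal for 48 hrs before a 24 hr compound treatment. Cell viability was quantified with CellTitre Glo.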

The target in the next experiment is GST-Bcl-2 (Homo sapiens, UniProt P10415). As to the kind of experiment: TR-FRET binding assay, GST-Bcl-2 with F-Bak peptide probe. The settings on record: TR-FRET Binding Affinity, GST-Bcl-2, F-Bak peptide probe. Summed up:
(§1)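 Competitive TR-FRET: GST-fusion protein, fluorescent Bak peptide probe and Tb-labelled anti-GST antibody incubated with compound dilution series (starting 50 μM as 2× stock, 10% DMSO) for 3 h at RT. Excitation 340/35 nm; Ki derived via Wang's exact competitive-binding equation.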

The target in another experiment is GST-Bcl-XL (Homo sapiens, UniProt Q07817). As to the kind of experiment: TR-FRET binding assay, GST-Bcl-XL with F-Bak peptide probe. The settings on record: TR-FRET Binding Affinity, GST-Bcl-XL, F-Bak peptide probe. Summed up: as §1
GST-Bcl-XL, sequence (Q07817 whole entry): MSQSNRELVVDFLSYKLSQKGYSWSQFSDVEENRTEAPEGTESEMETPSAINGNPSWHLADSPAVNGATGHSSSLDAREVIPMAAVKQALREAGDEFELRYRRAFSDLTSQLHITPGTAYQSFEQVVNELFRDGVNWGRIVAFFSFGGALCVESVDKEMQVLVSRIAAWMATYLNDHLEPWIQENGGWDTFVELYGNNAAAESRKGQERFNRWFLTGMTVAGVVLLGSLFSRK
Background: Time-resolved FRET reads energy transfer from a long-lived donor to a nearby acceptor.

Bounds are passed on as bounds.

GST-Bcl-2, sequence (P10415 whole entry, the tested form may be a part): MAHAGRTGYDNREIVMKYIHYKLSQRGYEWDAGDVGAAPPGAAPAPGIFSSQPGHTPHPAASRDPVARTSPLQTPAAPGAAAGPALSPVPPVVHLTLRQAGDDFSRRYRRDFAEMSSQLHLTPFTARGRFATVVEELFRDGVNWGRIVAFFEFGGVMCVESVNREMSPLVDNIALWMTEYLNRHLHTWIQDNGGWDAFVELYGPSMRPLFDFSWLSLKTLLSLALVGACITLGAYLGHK

The term EC50 denotes the midpoint of the concentration-response curve. Broadly, the Ki is a measure of affinity in units of concentration, obtained from inhibition or displacement. A lower Ki goes with a stronger hold on the target. For the compound `CN(C)CCOc1ccc(-c2ccc(Cl)cc2)c(CN2CCN(c3ccc(C(=O)NS(=O)(=O)c4ccc(NN5CCN(C)CC5)c([N+](=O)[O-])c4)c(Oc4cccc5[nH]ccc45)c3)CC2)c1` [Example 274, 4-[4-({4′-chloro-4-[2-(dimethylamino)ethoxy]-1,1′-biphenyl-2-yl}methyl)piperazin-1-yl]-2-(1H-indol-4-yloxy)-N-({4-[(4-methylpiperazin-1-yl)amino]-3-nitrophenyl}sulfonyl)benzamide], the EC50 in the experiment with FL5.12/Bcl-2 cells came out at 155 nM. The figures for the inhibitory constant (Ki) at GST-Bcl-2 and on GST-Bcl-XL were 0.135 nM and 32.9 nM, respectively.
The corresponding values for `CC1(C)CCC(CN2CCN(c3ccc(C(=O)NS(=O)(=O)c4ccc(NCC5CCS(=O)(=O)C5)c([N+](=O)[O-])c4)c(Oc4ccc5[nH]ccc5c4)c3)CC2)=C(c2ccc(Cl)cc2)C1` (stereo not drawn) [Example 275, 4-(4-{[2-(4-chlorophenyl)-4,4-dimethylcyclohex-1-en-1-yl]methyl}piperazin-1-yl)-N-[(4-{[(1,1-dioxidotetrahydrothien-3-yl)methyl]amino}-3-nitrophenyl)sulfonyl]-2-(1H-indol-5-yloxy)benzamide] are 38 nM, 0.097 nM and greater than 660 nM.
The corresponding values for `CC1(C)CCC(CN2CCN(c3ccc(C(=O)NS(=O)(=O)c4ccc(NC5CCS(=O)(=O)C5)c([N+](=O)[O-])c4)c(Oc4ccc5[nH]ccc5c4)c3)CC2)=C(c2ccc(Cl)cc2)C1` (stereo not drawn) [Example 276, 4-(4-{[2-(4-chlorophenyl)-4,4-dimethylcyclohex-1-en-1-yl]methyl}piperazin-1-yl)-N-({4-[(1,1-dioxidotetrahydrothien-3-yl)amino]-3-nitrophenyl}sulfonyl)-2-(1H-indol-5-yloxy)benzamide] are 62.2 nM, 0.144 nM and 381 nM.
With `CC1(C)CCC(CN2CCN(c3ccc(C(=O)NS(=O)(=O)c4ccc(NCC5CCOCC5)c(C(F)(F)F)c4)c(Oc4ccc5[nH]ccc5c4)c3)CC2)=C(c2ccc(Cl)cc2)C1` [Example 277, 4-(4-{[2-(4-chlorophenyl)-4,4-dimethylcyclohex-1-en-1-yl]methyl}piperazin-1-yl)-2-(1H-indol-5-yloxy)-N-{[4-[(tetrahydro-2H-pyran-4-ylmethyl)amino]-3-(trifluoromethyl)phenyl]sulfonyl}benzamide], the 50% effective concentration (EC50) in the experiment with FL5.12/Bcl-2 cells was greater than 500 nM. Also, the figures for the Ki on GST-Bcl-2 and at GST-Bcl-XL were 29.7 nM and greater than 660 nM, respectively.
Take `CC1(C)CCC(CN2CCN(c3ccc(C(=O)NS(=O)(=O)c4ccc(CCC5OCCO5)c([N+](=O)[O-])c4)c(Oc4ccc5[nH]ccc5c4)c3)CC2)=C(c2ccc(Cl)cc2)C1` [Example 278, 4-(4-{[2-(4-chlorophenyl)-4,4-dimethylcyclohex-1-en-1-yl]methyl}piperazin-1-yl)-N-({4-[2-(1,3-dioxolan-2-yl)ethyl]-3-nitrophenyl}sulfonyl)-2-(1H-indol-5-yloxy)benzamide]: in the experiment on FL5.12/Bcl-2 cells, the concentration for a half-maximal effect (EC50) turned out to be 153 nM. The Ki at GST-Bcl-2 is 0.71 nM; on GST-Bcl-XL, greater than 660 nM.
The corresponding values for `CC1(C)CCC(CN2CCN(c3ccc(C(=O)NS(=O)(=O)c4ccc(OCC5CCOCC5)c([N+](=O)[O-])c4)c(Oc4ccc5[nH]ccc5c4)c3)CC2)=C(c2ccc(Cl)cc2)C1` [Example 279, 4-(4-{[2-(4-chlorophenyl)-4,4-dimethylcyclohex-1-en-1-yl]methyl}piperazin-1-yl)-2-(1H-indol-5-yloxy)-N-{[3-nitro-4-(tetrahydro-2H-pyran-4-ylmethoxy)phenyl]sulfonyl}benzamide] are 16.2 nM, 0.095 nM and greater than 660 nM.
The corresponding values for `CC1(C)CCC(CN2CCN(c3ccc(C(=O)NS(=O)(=O)c4ccc(NCCN5CCNC(=O)C5)c([N+](=O)[O-])c4)c(Oc4cccc5[nH]ccc45)c3)CC2)=C(c2ccc(Cl)cc2)C1` [Example 280, 4-(4-{[2-(4-chlorophenyl)-4,4-dimethylcyclohex-1-en-1-yl]methyl}piperazin-1-yl)-2-(1H-indol-4-yloxy)-N-[(3-nitro-4-{[2-(3-oxopiperazin-1-yl)ethyl]amino}phenyl)sulfonyl]benzamide] are 247 nM, 0.178 nM and 195 nM.
As to `CN1CC(Nc2ccc(S(=O)(=O)NC(=O)c3ccc(N4CCN(CC5=C(c6ccc(Cl)cc6)CC(C)(C)CC5)CC4)cc3Oc3ccc4[nH]ccc4c3)cc2[N+](=O)[O-])CC1=O` (stereo not drawn) [Example 281, 4-(4-{[2-(4-chlorophenyl)-4,4-dimethylcyclohex-1-en-1-yl]methyl}piperazin-1-yl)-2-(1H-indol-5-yloxy)-N-({4-[(1-methyl-5-oxopyrrolidin-3-yl)amino]-3-nitrophenyl}sulfonyl)benzamide], the EC50 in the experiment on FL5.12/Bcl-2 cells amounted to 60.2 nM. The inhibitory constant (Ki) on GST-Bcl-2 amounted to 0.076 nM; at GST-Bcl-XL, 119 nM.
The corresponding values for `CN1CC(Nc2ccc(S(=O)(=O)NC(=O)c3ccc(N4CCN(CC5=C(c6ccc(Cl)cc6)CC(C)(C)CC5)CC4)cc3Oc3ccc4[nH]ccc4c3)cc2[N+](=O)[O-])CCC1=O` (stereo not drawn) [Example 282, 4-(4-{[2-(4-chlorophenyl)-4,4-dimethylcyclohex-1-en-1-yl]methyl}piperazin-1-yl)-2-(1H-indol-5-yloxy)-N-({4-[(1-methyl-6-oxopiperidin-3-yl)amino]-3-nitrophenyl}sulfonyl)benzamide] are 92.2 nM, 0.164 nM and 562 nM.
The corresponding values for `CC1(C)CCC(CN2CCN(c3ccc(C(=O)NS(=O)(=O)c4ccc(NN5CCCCC5)c([N+](=O)[O-])c4)c(Oc4cccc5[nH]ccc45)c3)CC2)=C(c2ccc(Cl)cc2)C1` [Example 283, 4-(4-{[2-(4-chlorophenyl)-4,4-dimethylcyclohex-1-en-1-yl]methyl}piperazin-1-yl)-2-(1H-indol-4-yloxy)-N-{[3-nitro-4-(piperidin-1-ylamino)phenyl]sulfonyl}benzamide] are greater than 500 nM, 47.5 nM and greater than 660 nM.
The corresponding values for `CC1(C)CCC(CN2CCN(c3ccc(C(=O)NS(=O)(=O)c4ccc(NN5CCCCC5)c([N+](=O)[O-])c4)c(Oc4ccc5[nH]ccc5c4)c3)CC2)=C(c2ccc(Cl)cc2)C1` [Example 284, 4-(4-{[2-(4-chlorophenyl)-4,4-dimethylcyclohex-1-en-1-yl]methyl}piperazin-1-yl)-2-(1H-indol-5-yloxy)-N-{[3-nitro-4-(piperidin-1-ylamino)phenyl]sulfonyl}benzamide] are greater than 500 nM, 1.55 nM and greater than 660 nM.
Turning to `Cn1ncc(-c2ccc(Cl)cc2)c1CN1CCN(c2ccc(C(=O)NS(=O)(=O)c3ccc(NCC4CCOCC4)c([N+](=O)[O-])c3)c(Oc3ccc4[nH]ccc4c3)c2)CC1` [Example 285, 4-(4-{[4-(4-chlorophenyl)-1-methyl-1H-pyrazol-5-yl]methyl}piperazin-1-yl)-2-(1H-indol-5-yloxy)-N-({3-nitro-4-[(tetrahydro-2H-pyran-4-ylmethyl)amino]phenyl}sulfonyl)benzamide], the concentration giving a half-maximal response (EC50) in the experiment with FL5.12/Bcl-2 cells was greater than 500 nM. The figures for the Ki on GST-Bcl-2 and on GST-Bcl-XL were 6.99 nM and greater than 660 nM, respectively.
For `CC1(C)CCC(CN2CCN(c3ccc(C(=O)NS(=O)(=O)c4ccc(OCC5(C)COC5)c([N+](=O)[O-])c4)c(Oc4ccc5[nH]ccc5c4)c3)CC2)=C(c2ccc(Cl)cc2)C1` [Example 286, 4-(4-{[2-(4-chlorophenyl)-4,4-dimethylcyclohex-1-en-1-yl]methyl}piperazin-1-yl)-2-(1H-indol-5-yloxy)-N-({4-[(3-methyloxetan-3-yl)methoxy]-3-nitrophenyl}sulfonyl)benzamide], the half-maximal effective concentration (EC50) in the experiment on FL5.12/Bcl-2 cells was found to be 279 nM. The values for the Ki on GST-Bcl-2 and at GST-Bcl-XL were 0.567 nM and greater than 660 nM, respectively.
The corresponding values for `CC1(C)CCC(CN2CCN(c3ccc(C(=O)NS(=O)(=O)c4ccc(NCc5cncs5)c([N+](=O)[O-])c4)c(Oc4ccc5[nH]ccc5c4)c3)CC2)=C(c2ccc(Cl)cc2)C1` [Example 288, 4-(4-{[2-(4-chlorophenyl)-4,4-dimethylcyclohex-1-en-1-yl]methyl}piperazin-1-yl)-2-(1H-indol-5-yloxy)-N-({3-nitro-4-[(1,3-thiazol-5-ylmethyl)amino]phenyl}sulfonyl)benzamide] are 64.3 nM, 0.177 nM and greater than 660 nM.
The corresponding values for `CC1(C)CCC(CN2CCN(c3ccc(C(=O)NS(=O)(=O)c4ccc(OCC5CCOCC5)c([N+](=O)[O-])c4)c(Oc4cccc5[nH]ccc45)c3)CC2)=C(c2ccc(Cl)cc2)C1` [Example 289, 4-(4-{[2-(4-chlorophenyl)-4,4-dimethylcyclohex-1-en-1-yl]methyl}piperazin-1-yl)-2-(1H-indol-4-yloxy)-N-{[3-nitro-4-(tetrahydro-2H-pyran-4-ylmethoxy)phenyl]sulfonyl}benzamide] are 27.4 nM, 0.112 nM and greater than 660 nM.
As to `CC1(C)CCC(c2ccc(Cl)cc2)=C(CN2CCN(c3ccc(C(=O)NS(=O)(=O)c4ccc(NCC5CCOCC5)c([N+](=O)[O-])c4)c(Oc4ccc5[nH]ccc5c4)c3)CC2)C1` [Example 290, 4-(4-{[2-(4-chlorophenyl)-5,5-dimethylcyclohex-1-en-1-yl]methyl}piperazin-1-yl)-2-(1H-indol-5-yloxy)-N-({3-nitro-4-[(tetrahydro-2H-pyran-4-ylmethyl)amino]phenyl}sulfonyl)benzamide], the EC50 with FL5.12/Bcl-2 cells was 44.7 nM. In addition, the inhibition constant Ki at GST-Bcl-2 was 0.365 nM; on GST-Bcl-XL it was greater than 660 nM.
